Source: BindingDB's records for doi:10.1002/syn.890150302 (Vanderbilt University, 1993)
pKi: −log10 of the molar value. Where “and” joins values, the source holds several entries; their conditions need not be identical. Equal entries are not always repeated.

molecular target: D(2) dopamine receptor (Rattus norvegicus, UniProt P61169)
Sequence (P61169 whole entry): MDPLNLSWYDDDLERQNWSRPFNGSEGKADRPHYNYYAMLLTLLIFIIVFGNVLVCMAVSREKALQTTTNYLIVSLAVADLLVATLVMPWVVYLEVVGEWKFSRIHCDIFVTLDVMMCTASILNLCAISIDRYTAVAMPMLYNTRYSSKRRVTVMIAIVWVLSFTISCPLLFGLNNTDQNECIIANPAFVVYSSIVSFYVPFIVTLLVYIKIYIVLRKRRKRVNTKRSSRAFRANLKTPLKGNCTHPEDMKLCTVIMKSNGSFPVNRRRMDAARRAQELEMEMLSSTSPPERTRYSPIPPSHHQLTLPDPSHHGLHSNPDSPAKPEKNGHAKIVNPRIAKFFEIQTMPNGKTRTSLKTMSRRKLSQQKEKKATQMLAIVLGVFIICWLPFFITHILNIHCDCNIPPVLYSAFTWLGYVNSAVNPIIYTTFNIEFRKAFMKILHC

Compound	pKi
NCc1cc(=O)[nH]o1	< 5.00
CCN1CCC[C@H]1CNC(=O)c1cc(I)cc(OC)c1OC	10.00 and 9.92
c1ccc2c(c1)OCC(C1=NCCN1)O2 (centres undefined)	< 5.00
O=C(c1ccc(F)cc1)C1CCN(CCn2c(=O)[nH]c3ccccc3c2=O)CC1 [3-(2-{4-[(4-fluorophenyl)carbonyl]piperidin-1-yl}ethyl)-1,2,3,4-tetrahydroquinazoline-2,4-dione]	6.26 and 6.28
CN1CCc2cc3c(cc2[C@H]1[C@@H]1OC(=O)c2c1ccc1c2OCO1)OCO3 [(R)-6-((S)-6-methyl-5,6,7,8-tetrahydro-[1,3]dioxolo[4,5-g]isoquinolin-5-yl)isobenzofuro[5,4-d][1,3]dioxol-8(6H)-one]	< 5.00
C=CCc1ccccc1OC[C@@H](O)CNC(C)C [ALPRENOLOL,(-)]	< 5.00 and 5.16
C=CCN1CC[C@]2(C)c3cc(O)ccc3C[C@@H]1[C@@H]2C [SKF 10,047 (-)]	< 5.00
CN1[C@@H]2CC[C@H]1C[C@@H](OC(=O)c1cc(Cl)cc(Cl)c1)C2 [TROPANYL 3,5-DICHLOROBENZOATE]	< 5.00
COc1cc2nc(N3CCN(C(=O)c4ccco4)CC3)nc(N)c2cc1OC [[3H]-Minipress]	< 5.00
